Patent publication US8030335B2, “Use of liver X receptor agonists” (Laboratoires Fournier S.A., priority 2005, dated 2011)

What was measured:
[1] = tested on: male Zucker Diabetic Fatty fa/fa (ZDF) rat; experiment: Plasma glucose in ZDF rats during and after 3 weeks of oral treatment; assay type: in vivo
Description: The male Zucker Diabetic Fatty fa/fa (ZDF) rat is a model of Type II diabetes. The rats are insulin resistant but normoglycemic from birth and they develop diabetes from about week 7 to week 10 of age. During the transitional period, the animals go through a state of impaired glucose tolerance. Although the animals are hyperinsulinemic before diabetes onset and during the early stages of diabetes, they later lose glucose-stimulated insulin secretion and finally become almost completely insulinopenic. Male ZDF fa/fa and ZDF fa+ rats were obtained from Genetic Models (Indianapolis, Ind.), at the age of 6 weeks and used in the experiments at 12 weeks of age, after 3 weeks of oral treatment with vehicle or GW3965 (10 mg/kg). Compounds were given once daily (at 17 h) via oral gavage. At the time of their use, the ZDF fa/fa rats weighed 310-350 g, whereas the age-matched ZDF fa+ rats weighed 245-285 g. ZDF fa+ and ZDF fa/fa animals had free access to diabetogenic chow (Purina 5008). Animals were housed 5 per cage in a temperature and humidity-controlled room with a 12/12-h light-dark cycle. Blood samples were taken 16 h after compound administration via the tail vein and measured on a Konelab 300 (Labsystem) clinical chemistry analyzer. At the beginning of the study, glycemia was similar in vehicle- and GW3965-treated ZDF rats.

[2] = tested on: isolated pancreatic islets; experiment: Apoptosis by measurement of DNA fragments (Cell Death Detection ELISA) in isolated islets; assay type: in vivo, rat; conditions: islets of ZDF rats, 10 mg/kg oral, overnight culture in RPMI; vehicle 43.1±9.2%, fa+ 19.9±6.2%
Experimental: Rat pancreatic islets were prepared by collagenase digestion and density gradient purification. The enzyme collagenase type XI (Sigma Chemical, St. Louis, Mo.) was used for digestion of the pancreas. After an overnight fast, animals were deeply anesthetized and killed. Then, the pancreatic duct was cannulated, and 20 ml of the digestion solution at 37° C. (collagenase 30 mg/ml dissolved in 20 ml Hanks' balanced salt solution [HBSS]) (Sigma Chemical, St. Louis, Mo.) was slowly injected to distend the tissue. After distension, the pancreas was placed into a 20-ml glass beaker containing 5 ml of the digestion solution at 37° C. that was set into a shaking water bath at 37° C. for 8 minutes. After centrifugation at 633 g for 1 min at 4° C., the supernatant was removed and the islets were washed three times with HBSS by centrifugation at 633 g for 1 min at 4° C. For the purification procedure, the islets were resuspended in 4 ml of 80% Histopaque 1.077 (Sigma) and 4 ml HBSS. […] The apoptosis of islet cells was assessed by the Cell Death Detection enzyme-linked immunosorbent assay (ELISA) plus Kit from Roche, according to the procedures recommended by the manufacturer and applied to rat islet experiment. […] At the end of the 5-min incubation, absorbance of samples was read spectrophotometrically at 405 nm. The results were expressed as a percent of internal standard (nucleosomal particles). […]

PDX1 mRNA = experiment: Real-time quantitative RT-PCR of PDX1 in isolated islets of treated ZDF rats; assay type: in vivo, rat; conditions: normalized to 18S rRNA, vehicle ZDF 0.17, fa+ 0.38±0.21
Experimental: Pancreatic and duodenal homeobox gene 1, Pdx1 (Genbank: NM_022852) and facilitated glucose transporter, member 2, Glut2 (Genbank: NM_012879) gene expression were measured by real time quantitative RT-PCR. Total RNAs from fresh isolated rat pancreatic islets were prepared using Rneasy 96 Kit according to the manufacturer's protocol (Qiagen, France), treated with Dnase I to remove contaminating DNA (Stratagene, France), and quantified using the iScript cDNA Synthesis and iQ SYBR Green Supermix kits (Biorad, france). Real-time quantitative RT-PCR was performed using the iCycler Detection System instrument and software (Bio-Rad). As the predicted size of the amplified cDNAs and the Tm values for the primers were similar, uniform amplification conditions were applied (ie. annealing at 60° C.). Specificity of amplified products was monitored by performing melting curves at the end of each amplification. Expression levels were quantified (total RNA units) by generating a six-point serial standard curve. RNA samples were normalized for comparison by determining 18S rRNA levels. In this example, the mRNA expression of PDX1 and Glut2 was determined. As previously described, PDX1 and Glut2 are markers of the regeneration of beta cells. […] PDX1 and Glut2 mRNA expression was increased in islets isolated from GW3965-compared to vehicle-treated ZDF rats. […]

## O=C(O)Cc1cccc(OCCCN(Cc2cccc(C(F)(F)F)c2Cl)CC(c2ccccc2)c2ccccc2)c1 [GW3965]
[1]; 10 mg/kg oral once daily, day 6 to day 21, vs vehicle
  plasma glucose (glycemia) during treatment: significantly prevented this rise and maintained glycemia at low level
[1]; after 21 days of treatment
  glycemia and HbA1c: significant decrease
[1]; day 44, no treatment from day 21, previously 10 mg/kg oral for 3 weeks
  glycemia after the end of treatment: still significantly reduced
[2]
  apoptosis, DNA fragments as percent of internal standard: 34.0±7.5%
PDX1 mRNA
  PDX1 mRNA expression: 0.35±0.11
